In brackets after ≈: the same amount, converted by molar mass.
Key:
[1] = system: ATCC19606 strains (Acinetobacter baumannii); assay: In vivo synergistic bactericidal activity with polymyxin E, mouse bacteremia model; set-up: species or system Balb/c mice; conditions: for survival rate / synergistic effects with Polymyxin E in vivo: Polymyxin E 0.5 mg/kg + compound 16 mg/kg, Balb/c mice infected with ATCC19606; for survival rate: intraperitoneal
Procedure: Representative compounds I-14 and I-82 were tested for their in vivo synergistic bactericidal activities when combined with polymyxin E. The specific method is as follows:
Normal Balb/c mice (6-8 weeks old) were used, and the animals were randomly divided into four groups (5 mice per group): • I: Control group • II: Polymyxin E at 0.5 mg/kg body weight • III: Polymyxin E at 0.5 mg/kg body weight+Compound I-14 at 16 mg/kg • IV: Polymyxin E at 0.5 mg/kg body weight+Compound I-82 at 16 mg/kg
Freshly cultured ATCC19606 strains (logarithmic growth phase) were washed with saline, adjusted to an OD600 of ~1.0, and mixed at 1:1 (v/v) with 10% porcine mucin. Each mouse was intraperitoneally administered 500 μl of the mixture. 1 hour later, an intraperitoneal injection was given again, with the control group receiving only saline.

[2] = system: ATCC19606 strain (Acinetobacter baumannii); assay: Checkerboard antibacterial synergistic activity test with polymyxin E (FIC); type: cell-based; set-up: key: FIC≤0.5 synergy; 0.5–1 additive; 1–2 indifferent; ≥2 antagonism; conditions: combined with polymyxin E
How it was run: (§1)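 First, two-fold series of polymyxin E (16–0.015 μg/ml) and compound (256–4 μg/ml) were made in MH broth. Next, combinations went into a 96-well grid, bacterial liquid was added, and plates sat at 37° C. for 16 h. Finally, FIC was computed and classed (≤0.5 synergistic).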

[3] = system: ATCC9027 strain (Pseudomonas aeruginosa); assay: as above; type: cell-based; set-up: key: FIC≤0.5 synergy; 0.5–1 additive; 1–2 indifferent; ≥2 antagonism; conditions: combined with polymyxin E
How it was run: as §1

[4] = system: ATCC13883 strain (Klebsiella pneumoniae); assay: as above; type: cell-based; set-up: key: FIC≤0.5 synergy; 0.5–1 additive; 1–2 indifferent; ≥2 antagonism; conditions: combined with polymyxin E
How it was run: as §1

[5] = system: ATCC25922 strain (Escherichia coli); assay: as above; type: cell-based; set-up: key: FIC≤0.5 synergy; 0.5–1 additive; 1–2 indifferent; ≥2 antagonism; conditions: combined with polymyxin E
How it was run: as §1

[6] = system: ATCC19606 strain (Acinetobacter baumannii); assay: Broth microdilution, antibacterial activity of the compound used alone; type: cell-based; conditions: read-out: Antibacterial activity of the compound of Formula I, ATCC19606
From the text: (§2) The broth microdilution method was used to test the antibacterial effects of the compounds of the present invention against various Gram-negative bacterial strains when used alone.

[7] = system: ATCC9027 strain (Pseudomonas aeruginosa); assay: as above; type: cell-based; conditions: read-out: Antibacterial activity of the compound of Formula I, ATCC9027
From the text: as §2

[8] = system: ATCC13883 strain (Klebsiella pneumoniae); assay: as above; type: cell-based; conditions: read-out: Antibacterial activity of the compound of Formula I, ATCC13883
From the text: as §2

[9] = system: ATCC25922 strain (Escherichia coli); assay: as above; type: cell-based; conditions: read-out: Antibacterial activity of the compound of Formula I, ATCC25922
From the text: as §2

[10] = system: clinical strains of Acinetobacter baumannii; assay: Synergistic effect (FIC) on inhibiting clinical strains of Acinetobacter baumannii; type: cell-based; conditions: for FIC: with polymyxin E
Procedure: Polymyxin E was diluted in sterile MH broth medium to concentrations of 16, 8, 4, 2, 1, 0.5, 0.25, 0.125, 0.0625, 0.031, and 0.015 μg/ml, and the drug to be tested was diluted to concentrations of 256, 128, 64, 32, 16, 8, and 4 μg/ml. According to the checkerboard method, combinations of the drug to be tested and polymyxin at different concentrations in ascending order were placed into a 96-well plate, and corresponding blank control groups were set up. 50 μl of the drug solution was added to each well, then 100 μl of bacterial liquid was added, and incubated in a 37° C. incubator for 16 hours. […] Calculation and judgment criteria:
Fractional Inhibitory Concentration (FIC) is calculated as follows: […]
Judgment criteria: FIC≤0.5: synergistic effect; 0.5<FIC<1: additive effect; 1<FIC<2: indifferent effect; FIC≥2: antagonistic effect.
(§3) Compound I-82 of the present invention was used as the representative compound and tested against clinical strains of Acinetobacter baumannii. […] The selected A. baumannii strains were isolated from hospital clinical samples and preserved in the laboratory for research purposes.

[11] = system: clinical strains of Acinetobacter baumannii; assay: MIC of polymyxin E against polymyxin E-resistant clinical strains; type: cell-based
From the text: as §3

| Compound | survival rate ([1]; Day 5) | synergistic effects with Polymyxin E in vivo [1] | Synergistic activity (FIC value) ATCC19606 [2] | Synergistic activity (FIC value) ATCC9027 [3] | Synergistic activity (FIC value) ATCC13883 [4] | Synergistic activity (FIC value) ATCC25922 [5] | MIC [6] [µg/mL] | MIC [7] [µg/mL] | MIC [8] [µg/mL] | MIC [9] [µg/mL] | other results |
| --- | --- | --- | --- | --- | --- | --- | --- | --- | --- | --- | --- |
| CC(C)(C)c1cc(-c2csc(N=C(N)N)n2)cc(C(C)(C)C)c1O [Compound I-14] | 80% | synergistic effects | 0.13 | 0.53 | 0.31 | 0.38 | 256 (≈ 739 µM) | 256 (≈ 739 µM) | 256 (≈ 739 µM) | 256 (≈ 739 µM) | – |
| Cc1ccc(Oc2ccccc2-c2csc(N=C(N)N)n2)c(C)c1 [Compound I-82] | above 60% | synergistic effects | 0.03 | 0.28 | 0.16 | 0.18 | 256 (≈ 756 µM) | 256 (≈ 756 µM) | 256 (≈ 756 µM) | 256 (≈ 756 µM) | Synergistic effects against clinical strains of A. baumannii ([10]; clinical strains with various resistance profiles): broad-spectrum synergistic effects; FIC ([10]; strain aba 30): 0.08; FIC ([10]; strain aba 39 (polymyxin E-resistant)): 0.13; FIC ([10]; strain aba 1611): 0.09; FIC ([10]; strain aba 1613): 0.13; FIC ([10]; strain aba 1617): 0.08; FIC ([10]; strain aba 1638): 0.02; FIC ([10]; strain aba 1645): 0.16; FIC ([10]; strain aba 4201): 0.09; FIC ([10]; strain aba 4230): 0.06; FIC ([10]; strain aba 6359): 0.09; FIC ([10]; strain aba 6380): 0.14; FIC ([10]; strain aba 6382): 0.09; FIC ([10]; strain aba 6410): 0.06; FIC ([10]; strain aba mia): 0.05; FIC ([10]; strain aba pmrA (polymyxin E-resistant)): 0.16 |
| polymyxin E | – | – | – | – | – | – | – | – | – | – | therapeutic effect on bacteremia in mice ([1]; Polymyxin E alone 0.5 mg/kg, Day 5, all mice died): no therapeutic effects; MIC ([11]; strain aba39): 64 µg/mL; MIC ([11]; strain aba pmrA): 256 µg/mL |

Source: patent US20260250257A1, “ANTIBACTERIAL AND SYNERGISTIC ACTIVE COMPOUND AND USE THEREOF” (EAST CHINA UNIVERSITY OF SCIENCE AND TECHNOLOGY, priority 2023, published 2026)
